Converted amounts (≈) assume the structure as drawn.
Legend:
Type in all cases: cell-based
S. aureas (ATCC 6538) = assay: Minimum inhibitory concentration (MIC) test; conditions: 24 h culture
Method: (§1) The minimum inhibitory concentration (MIC) is the lowest concentration of antibacterial agents that can inhibit the visible growth of bacteria after 24 h culture in a specific environment. Methods for determining the minimum inhibitory concentration can be a constant broth dilution method, a trace broth dilution method, an agar dilution method or an E experiment.

[1] = tested on: E. coli (American Type Culture Collection ATCC 25922); assay: Minimum inhibitory concentration (MIC) test; conditions: E. coli ATCC 25922; 24 h culture
Method: as §1

E. coli = assay: Durable antibacterial activity of glass surfaces modified by antibacterial agents (plate/colony counting method)
S. aureas = assay: as above

Row | SMILES | Minimum inhibitory concentration (MIC) (S. aureas (ATCC 6538)) | Minimum inhibitory concentration (MIC) [1] | Antibacterial activity of modified glass surface (plate counting method) (E. coli; wash number 0) | Antibacterial activity of modified glass surface (plate counting method) (E. coli; wash number 10) | Antibacterial activity of modified glass surface (plate counting method) (E. coli; wash number 50) | Antibacterial activity of modified glass surface (plate counting method) (E. coli; wash number 100) | Antibacterial activity of modified glass surface (plate counting method) (S. aureas; wash number 0) | Antibacterial activity of modified glass surface (plate counting method) (S. aureas; wash number 10) | Antibacterial activity of modified glass surface (plate counting method) (S. aureas; wash number 50) | Antibacterial activity of modified glass surface (plate counting method) (S. aureas; wash number 100)
1 | CC[N+](CC)(CCCS(=O)(=O)[O-])CCOC(=O)Nc1ccc(Cc2ccc(N=C=O)cc2)cc1 [Example 2] | 10 mM (≈ 4900 µg/mL) | 12 mM (≈ 5880 µg/mL) | 99.99% | 99.9% | 97.3% | 95.9% | 99.99% | 99.9% | 98.9% | 96.6%
2 | C[N+](C)(CCOC(=O)NCCCCCCN=C=O)CC(=O)[O-] [Example 3] | 8 mM (≈ 2520 µg/mL) | 11 mM (≈ 3470 µg/mL) | 99.99% | 99.8% | 98.5% | 96.5% | 99.99% | 99.9% | 99.0% | 97.2%
3 | C[N+](C)(CCCS(=O)(=O)[O-])CCNC(=O)NC1CCC(CC2CCC(N=C=O)CC2)CC1 (stereo not drawn) [Example 5] | 7 mM (≈ 3310 µg/mL) | 10 mM (≈ 4730 µg/mL) | 99.99% | 99.7% | 99.0% | 96.5% | 99.99% | 99.9% | 99.5% | 98.5%
4 | Cc1cc(NC(=O)NC2CC(C)(C)CC(C)(CN=C=O)C2)cc(C)[n+]1CCCS(=O)(=O)[O-] (stereo not drawn) [Example 9] | 8 mM (≈ 3730 µg/mL) | 10 mM (≈ 4670 µg/mL) | 99.99% | 99.8% | 97.1% | 94.3% | 99.99% | 99.9% | 98.5% | 95.2%
5 | CC1(C)CC(NC(=O)OCC[N+](C)(C)CCS(=O)(=O)[O-])CC(C)(CN=C=O)C1 (stereo not drawn) [Example 10] | 9 mM (≈ 3780 µg/mL) | 12 mM (≈ 5030 µg/mL) | 99.99% | 99.8% | 97.5% | 94.1% | 99.99% | 99.9% | 98.9% | 95.3%
6 | CC1(C)CC(NC(=O)OCC[N+](C)(C)CCCC(=O)[O-])CC(C)(CN=C=O)C1 (stereo not drawn) [Example 11] | 8 mM (≈ 3180 µg/mL) | 10 mM (≈ 3980 µg/mL) | 99.99% | 99.8% | 97.1% | 94.5% | 99.99% | 99.9% | 98.3% | 95.8%
